Data taken from ChEMBL document CHEMBL3865792, “Antioxidant and antitumor activity of trolox, trolox succinate, and α-tocopheryl succinate conjugates with nitroxides” (Eur J Med Chem, 2016).

Test system: not listed separately
Assay: Ratio of IC50 for human HEPG2 cells to concentration causing antioxidant activity in Salmonella typhimurium TA102 harboring […] mutant
Format: functional
Details: not given
For `Cc1c(C)c2c(c(C)c1OC(=O)CCC(=O)NC1CC(C)(C)N([O])C(C)(C)C1)CC[C@@](C)(CCC[C@H](C)CCC[C@H](C)CCCC(C)C)O2`, the Ratio was 100 - 1000.

Test system: not listed separately
Assay: Ratio of IC50 for human RPMI8226 cells to concentration causing antioxidant activity in Salmonella typhimurium TA102 harboring […] mutant
Format: functional, RPMI-8226
Details: not given
With `Cc1c(C)c2c(c(C)c1OC(=O)CCC(=O)NC1CC(C)(C)N([O])C(C)(C)C1)CC[C@@](C)(CCC[C@H](C)CCC[C@H](C)CCCC(C)C)O2` the Ratio was 100 - 1000.

Test system: not listed separately
Assay: Cytotoxicity against human CEM13 cells assessed as reduction in cell viability after 72 hrs by MTT assay
Format: functional, cell-based
Details: CEM13, 72 h
With `Cc1c(C)c2c(c(C)c1OC(=O)CCC(=O)NC1CC(C)(C)N([O])C(C)(C)C1)CC[C@@](C)(CCC[C@H](C)CCC[C@H](C)CCCC(C)C)O2` the IC50 was 146 µM.

Test system: not listed separately
Assay: Cytotoxicity against hamster AG17-1 cells assessed as reduction in cell viability at 300 uM after 72 hrs by MTT assay
Format: toxicity, cell-based, Cricetulus griseus
Details: Chinese hamster, read-out: INH
`Cc1c(C)c2c(c(C)c1OC(=O)CCC(=O)NC1CC(C)(C)N([O])C(C)(C)C1)CC[C@@](C)(CCC[C@H](C)CCC[C@H](C)CCCC(C)C)O2` showed a cytotoxicity at 72 h, 300 µM of 30%.

Test system: not listed separately
Assay: Cytotoxicity against human HepG2 cells assessed as reduction in cell viability at 300 uM after 72 hrs by MTT assay
Format: functional
Details: HepG2, 72 h
For `Cc1c(C)c2c(c(C)c1OC(=O)CCC(=O)NC1CC(C)(C)N([O])C(C)(C)C1)CC[C@@](C)(CCC[C@H](C)CCC[C@H](C)CCCC(C)C)O2`, the inhibition at 300 µM was 5%.

Test system: not listed separately
Assay: Ratio of IC50 for human U937 cells to concentration causing antioxidant activity in Salmonella typhimurium TA102 harboring […] mutant
Format: functional, U-937
Details: not given
For `Cc1c(C)c2c(c(C)c1OC(=O)CCC(=O)NC1CC(C)(C)N([O])C(C)(C)C1)CC[C@@](C)(CCC[C@H](C)CCC[C@H](C)CCCC(C)C)O2`, the Ratio was 100 - 1000.

Test system: not listed separately
Assay: Cytotoxicity against human RPMI8226 cells assessed as reduction in cell viability at 300 uM after 72 hrs by MTT assay
Format: functional
Details: RPMI-8226, 72 h
`Cc1c(C)c2c(c(C)c1OC(=O)CCC(=O)NC1CC(C)(C)N([O])C(C)(C)C1)CC[C@@](C)(CCC[C@H](C)CCC[C@H](C)CCCC(C)C)O2` gave an inhibition at 300 µM of 13%.

Test system: not listed separately
Assay: Cytotoxicity against human MCF7 cells assessed as reduction in cell viability after 72 hrs by MTT assay
Format: functional, cell-based
Details: MCF7, 72 h
For `Cc1c(C)c2c(c(C)c1OC(=O)CCC(=O)NC1CC(C)(C)N([O])C(C)(C)C1)CC[C@@](C)(CCC[C@H](C)CCC[C@H](C)CCCC(C)C)O2`, the IC50 was over 300 µM.

Test system: not listed separately
Assay: Cytotoxicity against human MCF7 cells assessed as reduction in cell viability at 300 uM after 72 hrs by MTT assay
Format: functional
Details: MCF7, 72 h
Compound `Cc1c(C)c2c(c(C)c1OC(=O)CCC(=O)NC1CC(C)(C)N([O])C(C)(C)C1)CC[C@@](C)(CCC[C@H](C)CCC[C@H](C)CCCC(C)C)O2` has an inhibition at 300 µM of 28%.

Test system: Salmonella enterica subsp. enterica serovar Typhimurium
Assay: Antioxidant activity in Salmonella typhimurium TA102 harboring […] mutant assessed as inhibition of t-BuO2H-dependant mutant formation at 3 uM preincubated with compound followed by t-BuO2H addition after 48 hrs by Ames test
Format: functional
Details: not given
`Cc1c(C)c2c(c(C)c1OC(=O)CCC(=O)NC1CC(C)(C)N([O])C(C)(C)C1)CC[C@@](C)(CCC[C@H](C)CCC[C@H](C)CCCC(C)C)O2` gave an inhibition of 29%.

Test system: not listed separately
Assay: Cytotoxicity against hamster AG17-1 cells assessed as reduction in cell viability after 72 hrs by MTT assay
Format: toxicity, cell-based, Cricetulus griseus
Details: Chinese hamster
In the case of `Cc1c(C)c2c(c(C)c1OC(=O)CCC(=O)NC1CC(C)(C)N([O])C(C)(C)C1)CC[C@@](C)(CCC[C@H](C)CCC[C@H](C)CCCC(C)C)O2`, the IC50 at 72 h is reported as over 300 µM.

Test system: not listed separately
Assay: Ratio of IC50 for human MCF7 cells to concentration causing antioxidant activity in Salmonella typhimurium TA102 harboring […] mutant
Format: functional
Details: not given
In the case of `Cc1c(C)c2c(c(C)c1OC(=O)CCC(=O)NC1CC(C)(C)N([O])C(C)(C)C1)CC[C@@](C)(CCC[C@H](C)CCC[C@H](C)CCCC(C)C)O2`, the Ratio is reported as 100 - 1000.

Test system: not listed separately
Assay: Cytotoxicity against mouse LMTK cells assessed as reduction in cell viability after 72 hrs by MTT assay
Format: toxicity
Details: not given
Compound `Cc1c(C)c2c(c(C)c1OC(=O)CCC(=O)NC1CC(C)(C)N([O])C(C)(C)C1)CC[C@@](C)(CCC[C@H](C)CCC[C@H](C)CCCC(C)C)O2` has an IC50 at 72 h of over 300 µM.

Test system: Salmonella enterica subsp. enterica serovar Typhimurium
Assay: Antioxidant activity in Salmonella typhimurium TA102 harboring […] mutant assessed as inhibition of t-BuO2H-dependant mutant formation at 30 uM preincubated with compound followed by t-BuO2H addition after 48 hrs by Ames test
Format: functional
Details: not given
In the case of `Cc1c(C)c2c(c(C)c1OC(=O)CCC(=O)NC1CC(C)(C)N([O])C(C)(C)C1)CC[C@@](C)(CCC[C@H](C)CCC[C@H](C)CCCC(C)C)O2`, the inhibition is reported as 20%.

Test system: Salmonella typhimurium
Assay: Genotoxicity in Salmonella typhimurium TA102 harboring […] mutant assessed as frequency of reversion from histidine auxotrophy to prototrophy at 30 mM after 48 hrs by Ames test (reference value: 209 +/- 10 No _unit)
Format: toxicity, organism-based
Details: salmonella enterica subsp. enterica serovar typhimurium, 30000 µM
Compound `Cc1c(C)c2c(c(C)c1OC(=O)CCC(=O)NC1CC(C)(C)N([O])C(C)(C)C1)CC[C@@](C)(CCC[C@H](C)CCC[C@H](C)CCCC(C)C)O2` has an Activity of 222.

Test system: not listed separately
Assay: Ratio of IC50 for human MT4 cells to concentration causing antioxidant activity in Salmonella typhimurium TA102 harboring […] mutant
Format: functional
Details: not given
For `Cc1c(C)c2c(c(C)c1OC(=O)CCC(=O)NC1CC(C)(C)N([O])C(C)(C)C1)CC[C@@](C)(CCC[C@H](C)CCC[C@H](C)CCCC(C)C)O2`, the Ratio was 100 - 1000.

Test system: not listed separately
Assay: Genotoxicity in Escherichia coli PQ37 expressing lacZ gene assessed as ratio of inducible beta-galactosidase activity to alkaline phosphatase activity at 30 mM after 2 hrs by SOS-chromotest relative to control
Format: toxicity
Details: Escherichia coli PQ37 cells expressing lacZ gene, read-out: FC
`Cc1c(C)c2c(c(C)c1OC(=O)CCC(=O)NC1CC(C)(C)N([O])C(C)(C)C1)CC[C@@](C)(CCC[C@H](C)CCC[C@H](C)CCCC(C)C)O2` showed a fold induction at 2 h, 30000 µM of 1.1.

Test system: not listed separately
Assay: Cytotoxicity against human HepG2 cells assessed as reduction in cell viability after 72 hrs by MTT assay
Format: functional, cell-based
Details: HepG2, 72 h
`Cc1c(C)c2c(c(C)c1OC(=O)CCC(=O)NC1CC(C)(C)N([O])C(C)(C)C1)CC[C@@](C)(CCC[C@H](C)CCC[C@H](C)CCCC(C)C)O2` gave an IC50 of over 300 µM.

Test system: not listed separately
Assay: Cytotoxicity against human RPMI8226 cells assessed as reduction in cell viability after 72 hrs by MTT assay
Format: functional, cell-based
Details: RPMI-8226, 72 h
For `Cc1c(C)c2c(c(C)c1OC(=O)CCC(=O)NC1CC(C)(C)N([O])C(C)(C)C1)CC[C@@](C)(CCC[C@H](C)CCC[C@H](C)CCCC(C)C)O2`, the IC50 was over 300 µM.

Test system: not listed separately
Assay: Ratio of IC50 for human CEM13 cells to concentration causing antioxidant activity in Salmonella typhimurium TA102 harboring […] mutant
Format: functional
Details: not given
With `Cc1c(C)c2c(c(C)c1OC(=O)CCC(=O)NC1CC(C)(C)N([O])C(C)(C)C1)CC[C@@](C)(CCC[C@H](C)CCC[C@H](C)CCCC(C)C)O2` the Ratio was 100 - 1000.

Test system: not listed separately
Assay: Cytotoxicity against human MT4 cells assessed as reduction in cell viability after 72 hrs by MTT assay
Format: functional, cell-based
Details: MT4, 72 h
For `Cc1c(C)c2c(c(C)c1OC(=O)CCC(=O)NC1CC(C)(C)N([O])C(C)(C)C1)CC[C@@](C)(CCC[C@H](C)CCC[C@H](C)CCCC(C)C)O2`, the IC50 was 53 µM.

Test system: not listed separately
Assay: Cytotoxicity against human U937 cells assessed as reduction in cell viability after 72 hrs by MTT assay
Format: functional, cell-based
Details: U-937, 72 h
In the case of `Cc1c(C)c2c(c(C)c1OC(=O)CCC(=O)NC1CC(C)(C)N([O])C(C)(C)C1)CC[C@@](C)(CCC[C@H](C)CCC[C@H](C)CCCC(C)C)O2`, the IC50 is reported as 76 µM.

Test system: not listed separately
Assay: Cytotoxicity against mouse LMTK cells assessed as reduction in cell viability at 300 uM after 72 hrs by MTT assay
Format: toxicity
Details: read-out: INH
Compound `Cc1c(C)c2c(c(C)c1OC(=O)CCC(=O)NC1CC(C)(C)N([O])C(C)(C)C1)CC[C@@](C)(CCC[C@H](C)CCC[C@H](C)CCCC(C)C)O2` has a cytotoxicity at 72 h, 300 µM of 19%.

Test system: Salmonella enterica subsp. enterica serovar Typhimurium
Assay: Antioxidant activity in Salmonella typhimurium TA102 harboring […] mutant assessed as inhibition of t-BuO2H-dependant mutant formation at 0.3 uM preincubated with compound followed by t-BuO2H addition after 48 hrs by Ames test
Format: functional
Details: not given
With `Cc1c(C)c2c(c(C)c1OC(=O)CCC(=O)NC1CC(C)(C)N([O])C(C)(C)C1)CC[C@@](C)(CCC[C@H](C)CCC[C@H](C)CCCC(C)C)O2` the inhibition was 24%.
